Laboratory results: ChEMBL document CHEMBL5465560, “Selectivity Literature for EUbOPEN Chemogenomic Library” (2024)

Assays:
[1] = target: Tyrosine-protein kinase Lck (Homo sapiens, UniProt P06239); test: Selectivity interaction (Kinase panel (Z-LYTE Assay)) EUB0001632a LCK; conditions: at 10 µM
[2] = target: Serine/threonine-protein kinase B-raf (Homo sapiens) (UniProt P15056); test: Selectivity interaction (SelectScreen profiling (Invitrogen)) EUB0000607a BRAF; conditions: at 2 µM
[3] = target: Serine/threonine-protein kinase PAK 4 (Homo sapiens, UniProt O96013); test: Selectivity interaction (KinomeScan (DiscoverX)) EUB0001049a PAK4; conditions: at 1 µM
[4] = target: Calcium/calmodulin-dependent protein kinase kinase 1 (Homo sapiens) (UniProt Q8N5S9); test: Selectivity interaction (Ambit KINOMEscan and KiNATiv profiling in Jurkat cells) EUB0000090b CAMKK1; type: cell-based; conditions: at 1 µM
[5] = target: Calcium/calmodulin-dependent protein kinase type 1G (Homo sapiens) (UniProt Q96NX5); test: Selectivity interaction (KinomeScan (DiscoverX)) EUB0000655a CAMK1G; conditions: at 10 µM
[6] = target: Tyrosine-protein kinase JAK2 (Homo sapiens, UniProt O60674); test: Selectivity interaction (KinomeScan (DiscoverX)) EUB0000045b JAK2
[7] = target: Tyrosine-protein kinase JAK1 (Homo sapiens, UniProt P23458); test: Selectivity interaction (KinomeScan (DiscoverX)) EUB0001079a JAK1; conditions: at 1 µM
[8] = target: Mitogen-activated protein kinase 6 (Homo sapiens) (UniProt Q16659); test: Selectivity interaction (KinomeScan (DiscoverX)) EUB0000229b MAPK6; conditions: at 10 µM
[9] = target: T1, Calcium/calmodulin-dependent protein kinase type IV (Homo sapiens) (UniProt Q16566); test: Selectivity interaction (KinomeScan (DiscoverX)) EUB0000229b CAMK4; conditions: at 10 µM
T1 sequence (whole entry): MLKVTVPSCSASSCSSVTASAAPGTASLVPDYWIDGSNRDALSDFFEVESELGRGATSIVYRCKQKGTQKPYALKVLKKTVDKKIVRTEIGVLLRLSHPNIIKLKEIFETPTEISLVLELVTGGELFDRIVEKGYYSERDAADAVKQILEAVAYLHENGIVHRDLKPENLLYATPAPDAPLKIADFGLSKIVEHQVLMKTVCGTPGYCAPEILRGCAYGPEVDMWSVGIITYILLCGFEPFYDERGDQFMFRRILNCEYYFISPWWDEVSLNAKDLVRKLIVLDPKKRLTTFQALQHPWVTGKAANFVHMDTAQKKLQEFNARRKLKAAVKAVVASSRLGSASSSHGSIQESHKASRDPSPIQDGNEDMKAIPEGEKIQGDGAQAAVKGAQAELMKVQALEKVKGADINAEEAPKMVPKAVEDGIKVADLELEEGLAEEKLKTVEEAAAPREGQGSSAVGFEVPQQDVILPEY

[10] = target: T2, Serine/threonine-protein kinase PLK4 (Homo sapiens) (UniProt O00444); test: Selectivity interaction (KinomeScan (DiscoverX)) EUB0000092b PLK4; conditions: at 10 µM
T2 sequence (whole entry): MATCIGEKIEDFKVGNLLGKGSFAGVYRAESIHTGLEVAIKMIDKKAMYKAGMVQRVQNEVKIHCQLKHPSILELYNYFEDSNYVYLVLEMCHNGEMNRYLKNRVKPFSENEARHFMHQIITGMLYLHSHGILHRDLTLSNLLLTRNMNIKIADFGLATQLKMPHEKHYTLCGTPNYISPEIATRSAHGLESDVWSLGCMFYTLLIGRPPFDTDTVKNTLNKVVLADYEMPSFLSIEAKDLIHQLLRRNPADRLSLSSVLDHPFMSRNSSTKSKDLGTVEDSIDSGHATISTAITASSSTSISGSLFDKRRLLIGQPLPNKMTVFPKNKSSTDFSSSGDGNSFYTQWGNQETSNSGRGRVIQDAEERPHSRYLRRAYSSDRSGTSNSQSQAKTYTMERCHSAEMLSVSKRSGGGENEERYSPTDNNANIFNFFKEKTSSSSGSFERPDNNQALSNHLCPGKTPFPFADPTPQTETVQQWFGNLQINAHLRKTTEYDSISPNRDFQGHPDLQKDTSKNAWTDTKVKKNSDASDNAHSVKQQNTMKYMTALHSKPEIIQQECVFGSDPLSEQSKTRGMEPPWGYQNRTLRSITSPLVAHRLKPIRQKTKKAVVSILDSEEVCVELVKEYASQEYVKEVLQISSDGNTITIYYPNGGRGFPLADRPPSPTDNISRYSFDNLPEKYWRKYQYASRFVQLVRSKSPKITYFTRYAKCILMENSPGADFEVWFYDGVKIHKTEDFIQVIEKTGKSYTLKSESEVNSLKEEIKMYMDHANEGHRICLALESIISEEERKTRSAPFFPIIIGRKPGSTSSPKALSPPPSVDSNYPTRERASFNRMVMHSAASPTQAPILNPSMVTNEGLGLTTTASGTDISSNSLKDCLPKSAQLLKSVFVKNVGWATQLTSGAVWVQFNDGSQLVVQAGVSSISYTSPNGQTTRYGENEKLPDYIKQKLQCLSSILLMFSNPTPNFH

[11] = target: CDK4/Cyclin D3 (Homo sapiens) (UniProt P11802+P30281); conditions: at 10 µM
[12] = target: T3, Tyrosine-protein kinase ZAP-70 (Homo sapiens) (UniProt P43403); test: Selectivity interaction (ActivX KiNativ screen (ex vivo kinase selectivity in human PBMCs)) EUB0001619a ZAP70; type: cell-based; conditions: PBMC, at 1 µM
T3 sequence (whole entry): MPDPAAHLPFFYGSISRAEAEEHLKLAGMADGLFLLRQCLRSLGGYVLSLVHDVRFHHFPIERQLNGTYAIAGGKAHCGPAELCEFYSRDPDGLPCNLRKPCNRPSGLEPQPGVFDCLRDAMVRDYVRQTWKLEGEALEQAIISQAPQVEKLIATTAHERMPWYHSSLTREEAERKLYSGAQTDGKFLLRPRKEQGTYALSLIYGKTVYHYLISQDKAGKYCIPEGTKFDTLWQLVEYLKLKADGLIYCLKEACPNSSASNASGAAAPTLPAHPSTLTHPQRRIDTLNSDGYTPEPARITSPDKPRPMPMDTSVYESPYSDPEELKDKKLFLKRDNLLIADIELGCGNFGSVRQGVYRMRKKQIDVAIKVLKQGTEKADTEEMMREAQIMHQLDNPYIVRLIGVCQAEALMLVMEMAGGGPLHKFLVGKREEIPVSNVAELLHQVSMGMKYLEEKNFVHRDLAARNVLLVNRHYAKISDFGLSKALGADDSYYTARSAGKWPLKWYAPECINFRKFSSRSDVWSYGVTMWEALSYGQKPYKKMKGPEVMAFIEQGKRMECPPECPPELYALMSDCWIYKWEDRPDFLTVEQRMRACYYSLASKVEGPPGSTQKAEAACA

Tyrosine-protein kinase JAK2, sequence (O60674 whole entry): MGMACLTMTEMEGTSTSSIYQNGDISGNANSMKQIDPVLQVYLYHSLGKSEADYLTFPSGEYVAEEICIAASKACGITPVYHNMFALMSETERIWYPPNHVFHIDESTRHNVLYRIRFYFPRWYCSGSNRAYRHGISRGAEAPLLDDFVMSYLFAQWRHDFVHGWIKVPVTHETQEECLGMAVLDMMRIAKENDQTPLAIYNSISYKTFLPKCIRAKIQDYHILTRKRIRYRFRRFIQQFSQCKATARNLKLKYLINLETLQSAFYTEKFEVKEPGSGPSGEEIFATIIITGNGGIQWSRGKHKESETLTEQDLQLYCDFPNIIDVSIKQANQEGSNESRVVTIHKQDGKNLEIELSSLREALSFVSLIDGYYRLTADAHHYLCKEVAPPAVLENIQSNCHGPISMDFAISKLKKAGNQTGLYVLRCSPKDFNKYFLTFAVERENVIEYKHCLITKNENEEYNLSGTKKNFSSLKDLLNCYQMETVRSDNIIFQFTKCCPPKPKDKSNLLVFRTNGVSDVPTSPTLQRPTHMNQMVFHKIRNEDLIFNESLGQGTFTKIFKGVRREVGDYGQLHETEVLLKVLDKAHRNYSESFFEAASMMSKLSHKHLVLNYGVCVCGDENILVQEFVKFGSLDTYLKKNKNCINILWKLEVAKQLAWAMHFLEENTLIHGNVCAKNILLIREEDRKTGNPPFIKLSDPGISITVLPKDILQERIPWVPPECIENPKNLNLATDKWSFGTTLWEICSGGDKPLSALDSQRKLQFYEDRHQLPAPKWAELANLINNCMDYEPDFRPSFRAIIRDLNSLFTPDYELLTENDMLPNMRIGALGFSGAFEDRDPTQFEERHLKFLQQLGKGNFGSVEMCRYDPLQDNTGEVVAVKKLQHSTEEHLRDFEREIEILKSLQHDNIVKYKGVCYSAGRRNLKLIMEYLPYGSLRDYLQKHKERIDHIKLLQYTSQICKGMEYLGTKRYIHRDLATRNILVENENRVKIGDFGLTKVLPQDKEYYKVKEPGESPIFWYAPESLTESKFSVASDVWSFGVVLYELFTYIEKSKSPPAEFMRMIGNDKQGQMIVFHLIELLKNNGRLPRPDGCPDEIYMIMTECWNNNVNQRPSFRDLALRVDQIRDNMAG
Serine/threonine-protein kinase B-raf (Homo sapiens), sequence (P15056 whole entry): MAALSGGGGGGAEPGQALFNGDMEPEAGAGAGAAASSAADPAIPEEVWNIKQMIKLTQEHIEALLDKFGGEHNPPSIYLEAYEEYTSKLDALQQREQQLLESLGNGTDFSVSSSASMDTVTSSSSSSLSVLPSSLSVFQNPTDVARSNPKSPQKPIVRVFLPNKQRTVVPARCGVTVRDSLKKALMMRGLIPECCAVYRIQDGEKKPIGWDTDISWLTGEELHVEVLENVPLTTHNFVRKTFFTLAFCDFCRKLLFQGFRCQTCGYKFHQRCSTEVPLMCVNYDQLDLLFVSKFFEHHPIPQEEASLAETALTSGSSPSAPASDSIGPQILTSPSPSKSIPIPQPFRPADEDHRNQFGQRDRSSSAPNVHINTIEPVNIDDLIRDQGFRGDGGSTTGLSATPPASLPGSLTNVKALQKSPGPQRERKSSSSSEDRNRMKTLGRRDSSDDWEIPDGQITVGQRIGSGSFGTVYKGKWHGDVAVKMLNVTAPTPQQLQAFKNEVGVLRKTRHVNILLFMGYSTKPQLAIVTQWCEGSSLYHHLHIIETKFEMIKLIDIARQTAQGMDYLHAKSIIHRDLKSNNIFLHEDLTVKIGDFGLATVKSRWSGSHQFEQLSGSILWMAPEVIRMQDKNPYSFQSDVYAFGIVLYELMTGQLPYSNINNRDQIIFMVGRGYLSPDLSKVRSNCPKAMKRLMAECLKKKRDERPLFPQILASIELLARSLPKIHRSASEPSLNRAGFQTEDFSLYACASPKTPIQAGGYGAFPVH
Tyrosine-protein kinase Lck, sequence (P06239 2-509 limits assumed): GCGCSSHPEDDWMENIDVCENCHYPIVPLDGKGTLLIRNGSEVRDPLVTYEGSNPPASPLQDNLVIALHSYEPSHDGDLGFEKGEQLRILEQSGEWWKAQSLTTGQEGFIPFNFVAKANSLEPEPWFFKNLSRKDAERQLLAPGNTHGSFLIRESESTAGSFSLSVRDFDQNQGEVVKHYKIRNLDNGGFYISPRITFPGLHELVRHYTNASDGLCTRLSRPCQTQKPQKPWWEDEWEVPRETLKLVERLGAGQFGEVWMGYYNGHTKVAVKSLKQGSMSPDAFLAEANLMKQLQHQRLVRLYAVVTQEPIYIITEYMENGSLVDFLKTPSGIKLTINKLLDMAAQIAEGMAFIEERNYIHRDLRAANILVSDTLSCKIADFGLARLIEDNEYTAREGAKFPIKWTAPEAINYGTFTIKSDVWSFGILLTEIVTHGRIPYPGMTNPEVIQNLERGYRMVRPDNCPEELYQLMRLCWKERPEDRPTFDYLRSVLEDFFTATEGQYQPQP
Serine/threonine-protein kinase PAK 4, sequence (O96013 whole entry, looked up): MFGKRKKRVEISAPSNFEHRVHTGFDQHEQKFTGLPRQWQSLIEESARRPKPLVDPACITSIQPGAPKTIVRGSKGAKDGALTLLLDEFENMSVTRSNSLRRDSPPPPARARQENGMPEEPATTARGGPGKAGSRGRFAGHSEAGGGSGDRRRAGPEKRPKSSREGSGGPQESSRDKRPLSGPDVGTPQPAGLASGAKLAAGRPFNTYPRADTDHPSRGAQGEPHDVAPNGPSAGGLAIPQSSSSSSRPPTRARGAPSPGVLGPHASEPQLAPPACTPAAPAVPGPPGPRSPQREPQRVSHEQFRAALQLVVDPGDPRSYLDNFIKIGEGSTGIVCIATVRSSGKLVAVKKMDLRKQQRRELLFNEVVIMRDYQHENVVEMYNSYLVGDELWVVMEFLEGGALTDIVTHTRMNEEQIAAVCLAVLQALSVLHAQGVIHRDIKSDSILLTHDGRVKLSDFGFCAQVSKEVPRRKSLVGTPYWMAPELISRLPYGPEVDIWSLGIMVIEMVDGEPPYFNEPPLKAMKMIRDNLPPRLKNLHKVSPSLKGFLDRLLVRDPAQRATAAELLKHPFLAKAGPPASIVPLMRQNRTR
Mitogen-activated protein kinase 6 (Homo sapiens), sequence (Q16659 whole entry): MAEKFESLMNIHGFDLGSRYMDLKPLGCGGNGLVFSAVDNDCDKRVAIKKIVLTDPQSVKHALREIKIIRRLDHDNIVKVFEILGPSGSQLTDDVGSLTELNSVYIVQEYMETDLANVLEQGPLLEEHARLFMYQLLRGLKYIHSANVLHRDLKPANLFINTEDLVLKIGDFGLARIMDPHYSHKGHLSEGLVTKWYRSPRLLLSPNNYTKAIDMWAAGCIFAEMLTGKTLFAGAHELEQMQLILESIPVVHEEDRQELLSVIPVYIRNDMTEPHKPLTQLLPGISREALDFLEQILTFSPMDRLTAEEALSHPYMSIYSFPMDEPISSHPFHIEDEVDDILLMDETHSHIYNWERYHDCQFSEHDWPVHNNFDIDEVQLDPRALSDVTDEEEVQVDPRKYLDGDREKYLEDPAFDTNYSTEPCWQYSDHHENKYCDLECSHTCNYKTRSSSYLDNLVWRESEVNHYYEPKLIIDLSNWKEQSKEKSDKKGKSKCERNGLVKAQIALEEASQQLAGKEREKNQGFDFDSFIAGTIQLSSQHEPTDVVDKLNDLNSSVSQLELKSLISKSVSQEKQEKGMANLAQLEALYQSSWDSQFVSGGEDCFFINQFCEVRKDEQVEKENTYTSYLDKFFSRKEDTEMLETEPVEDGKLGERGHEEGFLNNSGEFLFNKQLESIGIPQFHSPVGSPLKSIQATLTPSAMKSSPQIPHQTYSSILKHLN
Tyrosine-protein kinase JAK1, sequence (P23458 whole entry): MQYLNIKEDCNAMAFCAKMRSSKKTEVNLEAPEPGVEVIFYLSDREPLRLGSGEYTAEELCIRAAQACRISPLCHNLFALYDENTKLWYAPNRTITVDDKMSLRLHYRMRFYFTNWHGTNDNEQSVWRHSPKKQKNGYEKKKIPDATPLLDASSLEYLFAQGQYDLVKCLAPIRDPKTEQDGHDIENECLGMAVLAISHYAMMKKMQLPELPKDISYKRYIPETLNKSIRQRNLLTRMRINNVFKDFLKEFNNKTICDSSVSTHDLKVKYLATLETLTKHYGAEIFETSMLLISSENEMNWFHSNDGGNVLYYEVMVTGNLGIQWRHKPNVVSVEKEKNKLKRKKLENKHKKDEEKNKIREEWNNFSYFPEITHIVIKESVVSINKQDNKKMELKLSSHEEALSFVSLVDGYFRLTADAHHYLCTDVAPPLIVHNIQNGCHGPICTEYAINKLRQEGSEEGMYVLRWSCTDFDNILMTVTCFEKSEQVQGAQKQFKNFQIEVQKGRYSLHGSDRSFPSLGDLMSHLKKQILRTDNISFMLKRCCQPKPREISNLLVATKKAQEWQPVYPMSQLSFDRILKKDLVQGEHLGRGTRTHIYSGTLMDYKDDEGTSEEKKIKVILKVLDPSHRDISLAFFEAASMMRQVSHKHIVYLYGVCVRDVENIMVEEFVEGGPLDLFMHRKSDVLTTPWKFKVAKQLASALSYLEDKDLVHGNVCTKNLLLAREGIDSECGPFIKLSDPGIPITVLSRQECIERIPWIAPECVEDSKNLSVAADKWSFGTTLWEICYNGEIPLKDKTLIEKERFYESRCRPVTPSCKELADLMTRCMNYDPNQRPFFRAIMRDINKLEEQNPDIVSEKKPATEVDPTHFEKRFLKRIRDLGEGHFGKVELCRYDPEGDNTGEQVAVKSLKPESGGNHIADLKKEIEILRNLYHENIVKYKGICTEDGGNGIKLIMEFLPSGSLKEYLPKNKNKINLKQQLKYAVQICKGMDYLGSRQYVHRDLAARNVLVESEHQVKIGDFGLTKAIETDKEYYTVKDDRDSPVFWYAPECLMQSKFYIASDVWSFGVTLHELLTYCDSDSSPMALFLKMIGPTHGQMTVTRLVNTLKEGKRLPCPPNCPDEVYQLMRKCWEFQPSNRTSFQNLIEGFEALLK

Work on `Cn1cc(-n2cnc3c(NCc4nc5cc(Cl)c(Cl)cc5[nH]4)nc(N4CCOCC4)nc32)cn1` yielded a % of control [1] of 11.9%.
Work on `CNC(=O)Nc1ccc(-c2nc(N3CC4CCC(C3)O4)c3cnn(C4CCC5(CC4)OCCO5)c3n2)cc1` yielded a % of inhibition [2] of 6%.
`COc1cc(Nc2nc(C)cc(-c3cnn4nc(OC)ccc34)n2)cc(C(F)(F)F)c1` showed a % of control [3] of 88%.
Work on `CN(C)C/C=C/C(=O)Nc1ccc(C(=O)N2CCCC(Nc3ncc(Cl)c(-c4c[nH]c5ccccc45)n3)C2)cc1` (stereo not drawn) yielded a % of control [4] of 92%.
`CN(C)CCOc1ccc(-c2nc(-c3ccncc3)c(-c3ccc4c(c3)CC/C4=N\O)[nH]2)cc1` was tested, and the % of control [5] was 100%.
Compound `C=CC(=O)Nc1cc(-n2c(=O)ccc3cnc4ccc(-c5ccc(NS(C)(=O)=O)cc5)cc4c32)ccc1C` has a % of control ([6]; at 1 µM) of 86% and a % of control ([6]; at 10 µM) of 100%.
`Nc1cnc(N2CCc3cc(S(=O)(=O)Nc4c(F)cc(Cl)cc4F)cc(N4CCCC4=O)c32)nc1` [TP-020n] showed a % of control [7] of 93%.
`COc1cc(N(C)c2ccnc3ccc(C(F)(F)F)cc23)cc(OC)c1OC` was tested, and the % binding [8] was 100% and the % binding [9] was 98%.
With `CCC(=O)N1CCN(c2ccc(-n3c(=O)ccc4cnc5ccc(-c6cnc7ccccc7c6)cc5c43)cc2C(F)(F)F)CC1` the % of control [10] was 100%.
Compound `Cc1cc([C@@H](C)Nc2ccccc2C(=O)O)c2nc(N3CCOCC3)cc(=O)n2c1` [AZD-6482] has a % of control [11] of 100%.
In the case of `N#Cc1cccc(-c2c[nH]c3ncnc(N4CCOCC4)c23)c1`, the % of inhibition [12] is reported as 7%.
